{"source": "ChEMBL document CHEMBL3286318", "about": "“Design and synthesis of quinolinopropellane derivatives with selective δ opioid receptor agonism” (Bioorg Med Chem Lett, 2014)", "key": {"Mu-type opioid receptor [1]": {"target": "T1, Mu-type opioid receptor (Homo sapiens, UniProt P35372)", "T1 sequence (P35372 whole entry)": "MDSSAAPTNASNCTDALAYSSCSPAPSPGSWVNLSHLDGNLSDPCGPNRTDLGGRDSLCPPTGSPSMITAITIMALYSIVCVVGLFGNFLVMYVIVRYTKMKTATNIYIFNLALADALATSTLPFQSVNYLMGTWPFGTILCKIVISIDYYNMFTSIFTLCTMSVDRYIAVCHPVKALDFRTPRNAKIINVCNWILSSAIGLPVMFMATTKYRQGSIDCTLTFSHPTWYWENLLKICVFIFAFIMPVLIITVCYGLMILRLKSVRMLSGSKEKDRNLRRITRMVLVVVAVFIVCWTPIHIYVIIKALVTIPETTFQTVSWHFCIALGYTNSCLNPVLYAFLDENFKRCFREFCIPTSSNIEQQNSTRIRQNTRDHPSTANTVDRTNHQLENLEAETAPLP", "assay": "Displacement of [3H]DAMGO from mu-opioid receptor (unknown origin)"}, "[2]": {"target": "T2, Delta-type opioid receptor (Homo sapiens, UniProt P41143)", "T2 sequence (P41143 whole entry)": "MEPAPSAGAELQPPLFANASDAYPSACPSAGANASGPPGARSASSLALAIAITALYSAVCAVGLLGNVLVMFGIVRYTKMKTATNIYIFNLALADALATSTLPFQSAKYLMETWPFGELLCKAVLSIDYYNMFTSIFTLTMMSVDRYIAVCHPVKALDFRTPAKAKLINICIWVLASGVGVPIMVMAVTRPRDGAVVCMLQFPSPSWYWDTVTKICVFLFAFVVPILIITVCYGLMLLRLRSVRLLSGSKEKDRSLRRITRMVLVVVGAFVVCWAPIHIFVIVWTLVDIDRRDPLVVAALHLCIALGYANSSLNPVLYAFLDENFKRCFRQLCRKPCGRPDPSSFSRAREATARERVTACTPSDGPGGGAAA", "assay": "Displacement of [3H]DPDPE from delta-opioid receptor (unknown origin)"}, "[3]": {"target": "T3, Kappa-type opioid receptor (Homo sapiens, UniProt P41145)", "T3 sequence (P41145 whole entry)": "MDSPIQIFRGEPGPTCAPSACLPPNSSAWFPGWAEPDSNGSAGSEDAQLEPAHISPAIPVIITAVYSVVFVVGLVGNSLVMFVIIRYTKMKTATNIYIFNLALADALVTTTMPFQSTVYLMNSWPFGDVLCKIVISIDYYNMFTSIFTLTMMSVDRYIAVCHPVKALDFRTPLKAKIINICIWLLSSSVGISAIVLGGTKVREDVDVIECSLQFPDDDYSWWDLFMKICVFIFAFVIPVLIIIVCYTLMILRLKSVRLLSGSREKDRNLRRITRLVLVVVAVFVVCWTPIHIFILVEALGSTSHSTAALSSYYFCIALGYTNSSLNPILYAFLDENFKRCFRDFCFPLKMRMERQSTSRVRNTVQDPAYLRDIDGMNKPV", "assay": "Displacement of [3H]U-69593 from kappa-opioid receptor (unknown origin)"}, "Homo sapiens [4]": {"organism": "Homo sapiens", "assay": "Selectivity ratio Ki for mu-opioid receptor (unknown origin) to Ki for delta-opioid receptor (unknown origin)"}, "Homo sapiens [5]": {"organism": "Homo sapiens", "assay": "Selectivity ratio Ki for kappa-opioid receptor (unknown origin) to Ki for delta-opioid receptor (unknown origin)"}, "[6]": {"target": "T2, Delta-type opioid receptor", "assay": "Agonist activity at delta-opioid receptor (unknown origin) by [35S]GTPgammaS binding assay", "format": "functional"}, "Mu-type opioid receptor [7]": {"target": "T1, Mu-type opioid receptor", "assay": "Agonist activity at mu-opioid receptor (unknown origin) by [35S]GTPgammaS binding assay", "format": "functional"}, "[8]": {"target": "T3, Kappa-type opioid receptor", "assay": "Agonist activity at kappa-opioid receptor (unknown origin) by [35S]GTPgammaS binding assay"}}, "data": [{"smiles": "Oc1ccc2c(c1)[C@]13CCN(Cc4ccccc4)C[C@@]1(C2)Cc1cc2ccccc2nc1C3", "values": [{"measurement": "Ki", "setting": "Mu-type opioid receptor [1]", "result": 76.3, "unit": "nM"}, {"measurement": "Ki", "setting": "[2]", "result": 31.6, "unit": "nM"}, {"measurement": "Ki", "setting": "[3]", "result": 594, "unit": "nM"}, {"measurement": "Ratio Ki", "setting": "Homo sapiens [4]", "result": 2.42}, {"measurement": "Ratio Ki", "setting": "Homo sapiens [5]", "result": 18.8}]}, {"smiles": "Oc1ccc2c(c1)[C@]13CCN(CC4(O)CC4)C[C@@]1(C2)Cc1cc2ccccc2nc1C3", "values": [{"measurement": "Ki", "setting": "Mu-type opioid receptor [1]", "result": 415, "unit": "nM"}, {"measurement": "Ki", "setting": "[2]", "result": 1.1, "unit": "nM"}, {"measurement": "Ki", "setting": "[3]", "result": 879, "unit": "nM"}, {"measurement": "Ratio Ki", "setting": "Homo sapiens [4]", "result": 378}, {"measurement": "Ratio Ki", "setting": "Homo sapiens [5]", "result": 801}]}, {"smiles": "Oc1ccc2c(c1)[C@]13CCN(CC4CC4)C[C@@]1(C2)Cc1cc2ccccc2nc1C3", "values": [{"measurement": "Ki", "setting": "Mu-type opioid receptor [1]", "result": 112, "unit": "nM"}, {"measurement": "Ki", "setting": "[2]", "result": 0.941, "unit": "nM"}, {"measurement": "Ki", "setting": "[3]", "result": 84.6, "unit": "nM"}, {"measurement": "Ratio Ki", "setting": "Homo sapiens [4]", "result": 119}, {"measurement": "Ratio Ki", "setting": "Homo sapiens [5]", "result": 89.9}, {"measurement": "EC50", "setting": "[6]", "result": 2.5, "unit": "nM"}, {"measurement": "Emax", "setting": "[6]", "result": 88, "unit": "%"}, {"measurement": "EC50", "setting": "Mu-type opioid receptor [7]", "result": 197, "unit": "nM"}, {"measurement": "Emax", "setting": "Mu-type opioid receptor [7]", "result": 56, "unit": "%"}, {"measurement": "EC50", "setting": "[8]", "result": 836, "unit": "nM"}]}, {"smiles": "O=C1CC[C@@]23Cc4ccc(O)cc4[C@@]2(CCN(CC2CC2)C3)C1", "values": [{"measurement": "Ki", "setting": "Mu-type opioid receptor [1]", "result": 58.2, "unit": "nM"}, {"measurement": "Ki", "setting": "[2]", "result": 448, "unit": "nM"}, {"measurement": "Ki", "setting": "[3]", "result": 17.4, "unit": "nM"}]}, {"smiles": "CN1CC[C@]23Cc4nc5ccccc5cc4C[C@]2(Cc2ccc(O)cc23)C1", "values": [{"measurement": "Ki", "setting": "Mu-type opioid receptor [1]", "result": 3.06, "unit": "nM"}, {"measurement": "Ki", "setting": "[2]", "result": 1.88, "unit": "nM"}, {"measurement": "Ki", "setting": "[3]", "result": 195, "unit": "nM"}, {"measurement": "Ratio Ki", "setting": "Homo sapiens [4]", "result": 1.63}, {"measurement": "Ratio Ki", "setting": "Homo sapiens [5]", "result": 104}]}]}
